Results from patent US4843089A, “Antimycotic agent” (Bayer Aktiengesellschaft, priority 1984, dated 1989).

What was measured:
[1] = test system: dermatophytes, molds and yeasts; assay: Antimycotic in vitro activity, series dilution test (overall comparison with compound (B)); format: cell-based; details: in words; versus compound (B) known from the prior art
Procedure: The in vitro tests were carried out in a series dilution test using germ inocular of on average 5×10^3 to 10^4 germs/ml of substrate. The nutrient medium used was (a) for dermatophytes and molds. Sabourand's milieu d'epreuve (b) for yeasts: meat extract/glucose broth. The incubation temperature was 28° C. to 37° C. and the incubation period was 24 to 96 hours for yeasts and 96 hours for dermatophytes and molds.

Candida = assay: Antimycotic in vivo activity (oral) on candidosis of mice; parameters: species or system mice (SPF-CF1); details: in words, 25-100 mg/kg, versus compounds (A) and (B)
Procedure: Mice of the SPF-CF1 type were infected intravenously with 1-2×10^6 logarithmically growing Candida cells suspended in physiological saline solution. The animals were treated orally with in each case 25-100 mg of the products/kg of body weight one hour before and seven hours after infection. Untreated animals died 3 to 6 days after infection. The survival rate on the 6th day after infection was about 5% in the untreated control animals.

[2] = test system: Trichophyton von mentagrophytes; assay: Antimicrobial in vivo activity (local), experimental trichophytosis in guinea pigs; details: 0.1% strength solution, 1x daily

Row | SMILES | antimycotic action in vitro compared with compound (B) [1] | action against candidosis of mice compared with compounds (A) and (B) (Candida) | action (local) on experimental trichophytosis, in words [2]
1 | CCCC(O)(Cn1cncn1)C(C)(C)C=NOCc1ccc(Cl)cc1Cl (stereo not shown) [Example 42] | better antimycotic action than compound (B) | – | –
2 | CON=CC(C)(C)C(O)(C#Cc1ccc(-c2ccccc2)cc1)Cn1cncn1 (stereo not shown) [Example 12] | better antimycotic action than compound (B) | better action than compounds (A) and (B) | –
3 | CCC(O)(Cn1cncn1)C(C)(C)C=NOCc1ccc(Cl)cc1 (stereo not shown) [Example 43] | better antimycotic action than compound (B) | – | –
4 | CC(C)(C=NOCc1ccc(Cl)cc1Cl)C(O)(CCc1ccc(Cl)cc1)Cn1cncn1 (stereo not shown) [Example 29] | better antimycotic action than compound (B) | – | –
5 | CCCC(O)(Cn1cncn1)C(C)(C)C=NOCc1ccc(Cl)cc1 (stereo not shown) [Example 41] | better antimycotic action than compound (B) | – | –
6 | CCCCON=CC(C)(C)C(O)(Cn1cncn1)c1ccc(Cl)cc1 (stereo not shown) [Example 40] | – | better action than compounds (A) and (B) | good action
7 | CON=CC(C)(C)C(O)(Cn1cncn1)c1ccc(-c2ccccc2)cc1 (stereo not shown) [Example 35] | better antimycotic action than compound (B) | – | –
8 | CCCCON=CC(C)(C)C(O)(CCc1ccc(Cl)cc1)Cn1cncn1 (stereo not shown) [Example 23] | better antimycotic action than compound (B) | better action than compounds (A) and (B) | –
9 | CC(C)(C=O)C(O)(CCc1ccc(Cl)cc1)Cn1cncn1 (stereo not shown) [Example 7] | better antimycotic action than compound (B) | – | –
10 | CC(C)(C=O)C(O)(COc1ccc(-c2ccccc2)cc1)Cn1cncn1 (stereo not shown) [Example 5] | – | better action than compounds (A) and (B) | –
11 | CC(C)(C=O)C(O)(CCc1ccc(Cl)cc1Cl)Cn1cncn1 (stereo not shown) [Example 8] | – | better action than compounds (A) and (B) | –
12 | C=CCON=CC(C)(C)C(O)(CSc1ccc(Cl)cc1)Cn1cncn1 (stereo not shown) [Example 33] | better antimycotic action than compound (B) | – | –
13 | CON=CC(C)(C)C(O)(CSc1ccc(Cl)cc1)Cn1ccnc1 (stereo not shown) [Example 20] | better antimycotic action than compound (B) | better action than compounds (A) and (B) | good action
14 | CC(C)(C=NOCc1ccc(Cl)cc1)C(O)(COc1ccc(Cl)c(Cl)c1)Cn1cncn1 (stereo not shown) [Example 30] | better antimycotic action than compound (B) | – | –
15 | CC(C)(C=NOCc1ccc(Cl)cc1)C(O)(CCc1ccc(Cl)cc1)Cn1cncn1 (stereo not shown) [Example 28] | better antimycotic action than compound (B) | better action than compounds (A) and (B) | –
16 | CC(C)(C=NOCC1CCCCC1)C(O)(Cn1cncn1)c1ccc(Cl)cc1 (stereo not shown) [Example 39] | – | better action than compounds (A) and (B) | –
17 | CON=CC(C)(C)C(O)(CSc1ccc(Br)cc1)Cn1ccnc1 (stereo not shown) [Example 21] | better antimycotic action than compound (B) | – | –

Row | SMILES | antimycotic action in vitro compared with compound (B) [1] | action against candidosis of mice compared with compounds (A) and (B) (Candida) | action (local) on experimental trichophytosis, in words [2]
18 | CCCON=CC(C)(C)C(O)(Cn1cncn1)c1ccc(Cl)cc1 (stereo not shown) [Example 38] | better antimycotic action than compound (B) | better action than compounds (A) and (B) | good action
19 | CON=CC(C)(C)C(O)(CSc1ccc(C(F)(F)F)c(Cl)c1)Cn1cncn1 (stereo not shown) [Example 17] | better antimycotic action than compound (B) | – | –
20 | CC(C)(C=O)C(O)(C#Cc1ccc(-c2ccccc2)cc1)Cn1cncn1 (stereo not shown) [Example 11] | better antimycotic action than compound (B) | – | –
21 | C=CCON=CC(C)(C)C(O)(Cn1cncn1)c1ccc(-c2ccccc2)cc1 (stereo not shown) [Example 36] | better antimycotic action than compound (B) | – | –
22 | CON=CC(C)(C)C(O)(CSc1ccc(Cl)cc1)Cn1cncn1 (stereo not shown) [Example 32] | better antimycotic action than compound (B) | better action than compounds (A) and (B) | good action
23 | CON=CC(C)(C)C(O)(CCc1ccc(Cl)cc1)Cn1cncn1 (stereo not shown) [Example 22] | better antimycotic action than compound (B) | – | good action
24 | CON=CC(C)(C)C(O)(C#Cc1ccc(Cl)cc1)Cn1cncn1 (stereo not shown) [Example 10] | better antimycotic action than compound (B) | better action than compounds (A) and (B) | –
25 | CON=CC(C)(C)C(O)(C#Cc1ccc(Cl)cc1Cl)Cn1cncn1 (stereo not shown) [Example 13] | better antimycotic action than compound (B) | better action than compounds (A) and (B) | –
26 | CC(C)(C=O)C(O)(CCc1ccc(Cl)cc1)Cn1ccnc1 (stereo not shown) [Example 16] | – | better action than compounds (A) and (B) | –
27 | CON=CC(C)(C)C(O)(COc1ccc(Cl)cc1Cl)Cn1cncn1 (stereo not shown) [Example 24] | – | better action than compounds (A) and (B) | –
28 | CCCCC(O)(Cn1cncn1)C(C)(C)C=NOCc1ccc(Cl)cc1Cl (stereo not shown) [Example 47] | better antimycotic action than compound (B) | – | –
29 | CCCCC(O)(Cn1cncn1)C(C)(C)C=NOCC1CCCCC1 (stereo not shown) [Example 45] | better antimycotic action than compound (B) | – | –
30 | CC(C)(C=O)C(O)(CSc1ccc(Br)cc1)Cn1cncn1 (stereo not shown) [Example 19] | better antimycotic action than compound (B) | – | –
31 | CCCCC(O)(Cn1cncn1)C(C)(C)C=NOCc1ccc(Cl)cc1 (stereo not shown) [Example 46] | better antimycotic action than compound (B) | – | –
32 | CON=CC(C)(C)C(O)(COc1ccc(Cl)cc1)Cn1cncn1 (stereo not shown) [Example 4] | better antimycotic action than compound (B) | better action than compounds (A) and (B) | –
33 | CON=CC(C)(C)C(O)(Cn1cncn1)c1ccc(Cl)cc1 (stereo not shown) [Example 37] | better antimycotic action than compound (B) | better action than compounds (A) and (B) | good action
34 | CON=CC(C)(C)C(O)(CSc1ccc(Br)cc1)Cn1cncn1 (stereo not shown) [Example 18] | better antimycotic action than compound (B) | better action than compounds (A) and (B) | good action
